Test results from patent US5798336A, “Antimicrobial peptides” (priority 1995, dated 1998).
Where two headings read alike, the source gives them in different places. Where a SMILES comes first, the peptide text is derived from it.

How the values were obtained:
[1] = tested on: N. gonorrhoeae strain WS1
S. aureus strain 8325-4 [2] = settings: strain 8325-4, 500
S. aureus strain 8325-4 [3] = settings: for % Survival of S. aureus: Table 3, all peptides at 5×10^-4 M

| Molecule | Log Kill (500 μg/ml) N. gonorrhoeae strain WS1 ([1]; strain WS1, 500) [log] | Log Kill (500 μg/ml) S. aureus strain 8325-4 (S. aureus strain 8325-4 [2]) [log] | Log Kill (500 μg/ml) P. aeruginosa ATCC 27853 (P. aeruginosa ATCC 27853; ATCC 27853, 500) [log] | also measured |
| --- | --- | --- | --- | --- |
| CC[C@H](C)[C@H](NC(=O)[C@H](C)NC(=O)[C@H](CCCNC(=N)N)NC(=O)[C@H](CCCNC(=N)N)NC(=O)[C@H](C)NC(=O)[C@@H](NC(=O)[C@@H](NC(=O)[C@H](Cc1c[nH]cn1)NC(=O)[C@H](CCC(N)=O)NC(=O)[C@H](CCC(N)=O)NC(=O)[C@@H](NC(=O)[C@H](CC(N)=O)NC(=O)[C@H](CCC(=O)O)NC(=O)[C@H](CCCNC(=N)N)NC(=O)[C@@H](N)CCCNC(=N)N)[C@@H](C)O)[C@@H](C)CC)[C@@H](C)O)C(=O)N[C@@H](CCCNC(=N)N)C(=O)N[C@@H](Cc1c[nH]cn1)C(=O)N1CCC[C@H]1C(=O)N[C@@H](CCC(N)=O)C(=O)N[C@@H](Cc1ccc(O)cc1)C(=O)O [CG 61-80] (H-RRENTQQHITARRAIRHPQY-OH) | 0 | 0.58 | – | Log Kill (500 μg/ml) P. aeruginosa ATCC 278533 (P. aeruginosa ATCC 27853; ATCC 27853, 500): 5.15 log |
| CSCC[C@H](NC(=O)[C@H](CO)NC(=O)[C@@H](NC(=O)[C@H](CCCNC(=N)N)NC(=O)CNC(=O)[C@H](Cc1c[nH]c2ccccc12)NC(=O)CNC(=O)[C@H](C)NC(=O)[C@@H](NC(=O)[C@@H](NC(=O)[C@H](CS)NC(=O)[C@H](CC(C)C)NC(=O)[C@@H](NC(=O)CNC(=O)[C@@H]1CCCN1C(=O)[C@@H](N)CCCNC(=N)N)[C@@H](C)O)[C@@H](C)O)C(C)C)C(C)C)C(=O)N[C@@H](CCCNC(=N)N)C(=O)N[C@@H](CCCNC(=N)N)C(=O)NCC(=O)N[C@H](C(=O)O)[C@@H](C)O [CG 117-136] (H-RPGTLCTVAGWGRVSMRRGT-OH) | – | 5.34 | 5.8 | Log Kill (500 μg/ml) P. aeruginosa ATCC 278533 (P. aeruginosa ATCC 27853; ATCC 27853, 500): 5.88 log |
| H^Dnp PQYNQR | – | – | – | % Survival of S. aureus (S. aureus strain 8325-4 [3]): 102.2% |
| CC[C@H](C)[C@H](N)C(=O)N[C@H](C(=O)NCC(=O)NCC(=O)N[C@@H](CCCNC(=N)N)C(=O)O)C(C)C [IVGGR] (H-IVGGR-OH) | – | – | – | ED50 (S. aureus strain 8325-4 [3]): > 875 µM |
| CC[C@H](C)[C@H](NC(=O)[C@H](CC(=O)O)NC(=O)[C@H](CC(N)=O)NC(=O)[C@H](CCC(N)=O)NC(=O)[C@@H](NC(=O)[C@@H](NC(=O)[C@H](CCCNC(=N)N)NC(=O)[C@H](CCC(N)=O)NC(=O)[C@H](CC(N)=O)NC(=O)[C@H](Cc1ccc(O)cc1)NC(=O)[C@H](CCC(N)=O)NC(=O)[C@@H]1CCCN1C(=O)[C@@H](N)Cc1c[nH]cn1)[C@@H](C)O)[C@@H](C)CC)C(=O)N[C@@H](CCSC)C(=O)N[C@@H](CC(C)C)C(=O)N[C@@H](CC(C)C)C(=O)N[C@@H](CCC(N)=O)C(=O)N[C@@H](CC(C)C)C(=O)N[C@@H](CO)C(=O)N[C@@H](CCCNC(=N)N)C(=O)O [CG 77-96] (H-HPQYNQRTIQNDIMLLQLSR-OH) | 0.24 | – | 0.06 | – |
| CC[C@H](C)[C@H](NC(=O)CNC(=O)[C@H](Cc1c[nH]cn1)NC(=O)[C@H](C)NC(=O)[C@@H](NC(=O)[C@H](CC(N)=O)NC(=O)[C@H](CC(N)=O)NC(=O)[C@H](CS)NC(=O)[C@H](CC(C)C)NC(=O)[C@H](CC(C)C)NC(=O)[C@@H]1CCCN1C(=O)CNC(=O)CNC(=O)[C@H](CO)NC(=O)[C@H](CC(=O)O)NC(=O)CNC(=O)[C@H](CCCCN)NC(=O)[C@@H](N)Cc1ccccc1)C(C)C)C(=O)N[C@H](C(=O)N[C@@H](CO)C(=O)N[C@@H](Cc1ccc(O)cc1)C(=O)O)C(C)C [CG 177-197] (H-FKGDSGGPLLCNNVAHGIVSY-OH) | 0.68 | – | -0.79 | – |
| CSCC[C@H](NC(=O)[C@H](CO)NC(=O)[C@@H](NC(=O)[C@H](CCCNC(=N)N)NC(=O)CNC(=O)[C@H](Cc1c[nH]c2ccccc12)NC(=O)CNC(=O)[C@H](C)NC(=O)[C@@H](NC(=O)[C@@H](NC(=O)[C@@H](N)CS)[C@@H](C)O)C(C)C)C(C)C)C(=O)N[C@@H](CCCNC(=N)N)C(=O)N[C@@H](CCCNC(=N)N)C(=O)NCC(=O)N[C@H](C(=O)O)[C@@H](C)O [CG 122-136] (H-CTVAGWGRVSMRRGT-OH) | 4.18 | 0 | 4.75 | – |
| CC(C)C[C@H](NC(=O)[C@@H](NC(=O)CNC(=O)[C@@H]1CCCN1C(=O)[C@@H](N)CCCNC(=N)N)[C@@H](C)O)C(=O)N[C@@H](CS)C(=O)N[C@H](C(=O)N[C@H](C(=O)N[C@@H](C)C(=O)NCC(=O)N[C@@H](Cc1c[nH]c2ccccc12)C(=O)NCC(=O)N[C@@H](CCCNC(=N)N)C(=O)O)C(C)C)[C@@H](C)O [CG 117-129] (H-RPGTLCTVAGWGR-OH) | 0.05 | 0 | 0.86 | – |
| CC[C@H](C)[C@H](N)C(=O)N[C@H](C(=O)NCC(=O)NCC(=O)N[C@@H](CCCNC(=N)N)C(=O)N[C@@H](CCC(=O)O)C(=O)N[C@@H](CO)C(=O)N[C@@H](CCCNC(=N)N)C(=O)N1CCC[C@H]1C(=O)N[C@@H](Cc1c[nH]cn1)C(=O)N[C@@H](CO)C(=O)N[C@@H](CCCNC(=N)N)C(=O)N1CCC[C@H]1C(=O)N[C@@H](Cc1ccc(O)cc1)C(=O)N[C@@H](CCSC)C(=O)N[C@@H](C)C(=O)N[C@@H](Cc1ccc(O)cc1)C(=O)N[C@@H](CC(C)C)C(=O)N[C@@H](CCC(N)=O)C(=O)N[C@H](C(=O)O)[C@@H](C)CC)[C@@H](C)CC [CG 1-20] (H-IIGGRESRPHSRPYMAYLQI-OH) | 2.57 | 0.3 | 5.507 | Log Kill (500 μg/ml) P. aeruginosa ATCC 278533 (P. aeruginosa ATCC 27853; ATCC 27853, 500): 1.0 log; Log Kill (500 μg/ml) N. gonorrhoeae strain WSI ([1]; strain WS1, 500): 0.43 log |
| CC[C@H](C)[C@H](N)C(=O)N[C@H](C(=O)NCC(=O)NCC(=O)N[C@@H](CCCNC(=N)N)C(=O)O)[C@@H](C)CC [IIGGR] (H-IIGGR-OH) | – | – | – | ED50 (S. aureus strain 8325-4 [3]): 430 µM |
| CC(C)C[C@H](NC(=O)CNC(=O)[C@H](CCC(=O)O)NC(=O)[C@H](CCC(N)=O)NC(=O)[C@H](C)NC(=O)[C@H](CCCNC(=N)N)NC(=O)[C@@H]1CCCN1C(=O)[C@H](CC(C)C)NC(=O)[C@H](C)NC(=O)[C@@H](NC(=O)[C@@H]1CCCN1C(=O)[C@H](CC(N)=O)NC(=O)[C@@H](NC(=O)[C@H](CC(N)=O)NC(=O)[C@H](CCCNC(=N)N)NC(=O)[C@H](CC(N)=O)NC(=O)[C@H](CCCNC(=N)N)NC(=O)[C@H](CCCNC(=N)N)NC(=O)[C@@H](NC(=O)[C@@H](N)CCCNC(=N)N)C(C)C)C(C)C)C(C)C)C(=O)O [CG 97-116] (H-RVRRNRNVNPVALPRAQEGL-OH) | -0.21 | -0.1 | 5.93 | Log Kill (500 μg/ml) P. aeruginosa ATCC 278533 (P. aeruginosa ATCC 27853; ATCC 27853, 500): 0.22 log; Log Kill (500 μg/ml) N. gonorrhoeae strain WSI ([1]; strain WS1, 500): 0.2 log |
| CC[C@H](C)[C@H](NC(=O)[C@H](CC(N)=O)NC(=O)[C@H](Cc1c[nH]cn1)NC(=O)[C@H](C)NC(=O)CNC(=O)[C@H](CC(C)C)NC(=O)[C@@H](NC(=O)[C@@H](NC(=O)[C@H](CC(N)=O)NC(=O)[C@@H](NC(=O)[C@H](CC(N)=O)NC(=O)[C@H](CO)NC(=O)CNC(=O)[C@H](Cc1c[nH]c2ccccc12)NC(=O)[C@H](CS)NC(=O)[C@H](Cc1c[nH]cn1)NC(=O)[C@H](C)NC(=O)[C@H](C)NC(=O)[C@@H](N)[C@@H](C)O)[C@@H](C)CC)C(C)C)[C@@H](C)O)C(=O)N[C@@H](CCC(N)=O)C(=O)O [CG 41-60] (H-TAAHCWGSNINVTLGAHNIQ-OH) | -0.09 | – | 0.5 | – |
| H^1m QYNQR | – | – | – | % Survival of S. aureus (S. aureus strain 8325-4 [3]): 37.3% |
| CSCC[C@H](NC(=O)[C@H](CO)NC(=O)[C@@H](NC(=O)[C@H](CCCNC(=N)N)NC(=O)CNC(=O)[C@@H](N)Cc1c[nH]c2ccccc12)C(C)C)C(=O)N[C@@H](CCCNC(=N)N)C(=O)N[C@@H](CCCNC(=N)N)C(=O)NCC(=O)N[C@H](C(=O)O)[C@@H](C)O [CG 127-136] (H-WGRVSMRRGT-OH) | 3.20 | 0 | 0.27 | – |
| CC[C@H](C)[C@H](NC(=O)[C@H](CCCNC(=N)N)NC(=O)[C@H](CC(C)C)NC(=O)[C@H](CS)NC(=O)[C@H](CCC(N)=O)NC(=O)[C@H](CCCNC(=N)N)NC(=O)[C@H](CC(=O)O)NC(=O)[C@H](CCCNC(=N)N)NC(=O)[C@H](CCC(N)=O)NC(=O)[C@@H](NC(=O)[C@H](CCCNC(=N)N)NC(=O)[C@H](CC(C)C)NC(=O)[C@H](CCC(N)=O)NC(=O)[C@@H](NC(=O)[C@H](CCC(=O)O)NC(=O)[C@H](CCCNC(=N)N)NC(=O)[C@H](CC(C)C)NC(=O)[C@@H](NC(=O)[C@@H](N)CC(=O)O)[C@@H](C)O)C(C)C)C(C)C)C(=O)N[C@@H](Cc1ccccc1)C(=O)O [CG 137-156] (H-DTLREVQLRVQRDRQCLRIF-OH) | – | – | – | Log Kill (500 μg/ml) P. aeruginosa ATCC 27853 (P. aeruginosa ATCC 27853; Table 6, crude peptides 500 μg/ml, about 10^7 CFU/ml, 1/100 strength HBSS): 0.01 log; Log Kill (500 μg/ml) N. gonorrhoeae strain WS1 ([1]; Table 6, crude peptides 500 μg/ml, 1/100 strength HBSS): 0.43 log |
| CC(C)C[C@H](NC(=O)[C@@H](NC(=O)[C@H](Cc1ccccc1)NC(=O)[C@H](CC(=O)O)NC(=O)[C@H](CCC(=O)O)NC(=O)[C@H](CCCNC(=N)N)NC(=O)[C@@H](NC(=O)[C@H](CC(C)C)NC(=O)[C@H](Cc1ccccc1)NC(=O)CNC(=O)CNC(=O)[C@H](CS)NC(=O)[C@H](CCCNC(=N)N)NC(=O)[C@H](CO)NC(=O)[C@H](CCC(N)=O)NC(=O)CNC(=O)[C@H](C)NC(=O)[C@@H]1CCCN1C(=O)[C@H](CO)NC(=O)[C@@H](N)CCC(N)=O)C(C)C)C(C)C)C(=O)O [CG 21-40] (H-QSPAGQSRCGGFLVREDFVL-OH) | 0.05 | – | -0.034 | – |
| CC[C@H](C)[C@H](NC(=O)[C@H](CCC(N)=O)NC(=O)[C@H](CCCNC(=N)N)NC(=O)[C@H](CCCNC(=N)N)NC(=O)[C@@H]1CCCN1C(=O)[C@H](CC(=O)O)NC(=O)[C@H](Cc1ccc(O)cc1)NC(=O)[C@H](CO)NC(=O)CN)C(=O)N[C@@H](CS)C(=O)N[C@H](C(=O)NCC(=O)N[C@@H](CC(=O)O)C(=O)N[C@@H](CCCNC(=N)N)C(=O)N[C@@H](CCCNC(=N)N)C(=O)N[C@@H](CCC(=O)O)C(=O)N[C@@H](CCCNC(=N)N)C(=O)N[C@@H](CCCCN)C(=O)N[C@@H](C)C(=O)N[C@@H](C)C(=O)O)C(C)C [CG 157-176] (H-GSYDPRRQICVGDRRERKAA-OH) | -0.18 | – | 1.02 | – |
